Laboratory results from patent publication US20040253139A1, “Environmental surface disinfectant” (priority 2003, published 2004).

Test system: E. coli (ATCC 25922)
Assay: Lower effective concentration of ethyl lactate, modification of AOAC Method 956.17
Assay type: cell-based
Details: 15% solution of ethyl lactate, exposure 10 minutes
Procedure: Using a modification of AOAC Method 956.17, the lower effective concentration for ethyl lactate was tested against E. coli (ATCC 25922) at three reaction times at varying concentrations of ethyl lactate.

CCOC(=O)C(C)O (stereo not shown) [ethyl lactate]
Bacterial growth: eliminated bacterial growth
